Measured values reported in patent US20130157954A1, “METHODS FOR TREATMENT OR PROPHYLAXIS OF KIDNEY OR LIVER DYSFUNCTION” (NPS PHARMACEUTICALS, INC., priority 2010, published 2013).

Test: Example 1: liver biomarkers (total bilirubin, ALT, AST, ALP) in short bowel syndrome patients, every four weeks for 24 weeks; also sorted by >5% change from baseline
Type: in vivo, Human
Design: AST (SGOT) Change from Baseline Median / ALT (SGPT) Median / TOTAL BILIRUBIN Median / TOTAL BILIRUBIN Change from Baseline Median / ALT (SGPT) Change from Baseline Median / AST (SGOT) Median: unit not given here
Conditions: for ALKALINE PHOSPHATASE change from baseline −5% <= and <=5%, percent of patients / ALT (SGPT) change from baseline <−5%, number of patients / ALT (SGPT) change from baseline <−5%, percent of patients / ALT (SGPT) change from baseline >5%, number of patients / ALT (SGPT) change from baseline >5%, percent of patients / ALT (SGPT) change from baseline −5% <= and <=5%, number of patients / ALT (SGPT) change from baseline −5% <= and <=5%, percent of patients / AST (SGOT) change from baseline <−5%, number of patients / AST (SGOT) change from baseline <−5%, percent of patients / AST (SGOT) change from baseline >5%, number of patients / AST (SGOT) change from baseline >5%, percent of patients / AST (SGOT) change from baseline −5% <= and <=5%, number of patients / AST (SGOT) change from baseline −5% <= and <=5%, percent of patients / TOTAL BILIRUBIN change from baseline <−5%, number of patients / TOTAL BILIRUBIN change from baseline <−5%, percent of patients / TOTAL BILIRUBIN change from baseline >5%, number of patients / TOTAL BILIRUBIN change from baseline >5%, percent of patients / TOTAL BILIRUBIN change from baseline −5% <= and <=5%, number of patients / TOTAL BILIRUBIN change from baseline −5% <= and <=5%, percent of patients / ALKALINE PHOSPHATASE change from baseline <−5%, number of patients / ALKALINE PHOSPHATASE change from baseline <−5%, percent of patients / ALKALINE PHOSPHATASE change from baseline >5%, number of patients / ALKALINE PHOSPHATASE change from baseline >5%, percent of patients / ALKALINE PHOSPHATASE change from baseline −5% <= and <=5%, number of patients: 0.05 mg/kg/day
Protocol: Human patients with short bowel syndrome were divided into three groups: a control group (16 total individuals) to receive placebo, an experimental group (35 total individuals) to receive teduglutide at 0.05 mg/kg/day throughout the study, and an experimental group (32 total individuals) to receive teduglutide at 0.1 mg/kg/day throughout the study. Patients were treated by subcutaneous injection of placebo or the appropriate dose of teduglutide. As individuals with short bowel syndrome are likely to experience associated liver and kidney disease, known biomarkers of liver and kidney function were monitored every four weeks, for 24 weeks. The liver biomarkers tested included total bilirubin, ALT and AST and ALP. The kidney biomarkers tested included urea nitrogen, creatinine and GFR. Before administration of placebo or teduglutide, diagnostic biomarker levels were tested to establish a baseline for each individual.
To visualize the effect of GLP-2 on the levels of the diagnostic biomarkers, the average change from baseline was calculated for the placebo and teduglutide treated groups for each visit after a baseline was established. The average change from baseline of each group is depicted in FIGS. 1-7. The numerical figures for each diagnostic biomarker at each time point are depicted in Table 1.
The efficacy of teduglutide in treating liver dysfunction was further tested by sorting the data into two groups: individuals with abnormal baseline values of liver diagnostic biomarkers; and individuals with normal baseline values of liver diagnostic biomarkers. The mean diagnostic biomarker change from baseline for these two groups is shown for ALT (FIGS. 5 and 6) and AST (FIGS. 7 and 8). […] These changes were significant when compared to baseline levels for the group, and when compared to placebo (see FIGS. 5 and 7).
The raw data for this sorting is reproduced in Table 2 below.

CC[C@H](C)[C@H](NC(=O)[C@H](Cc1ccccc1)NC(=O)[C@H](CC(=O)O)NC(=O)[C@H](CCCNC(=N)N)NC(=O)[C@H](C)NC(=O)[C@H](C)NC(=O)[C@H](CC(C)C)NC(=O)[C@H](CC(N)=O)NC(=O)[C@H](CC(=O)O)NC(=O)[C@H](CC(C)C)NC(=O)[C@@H](NC(=O)[C@@H](NC(=O)[C@H](CC(N)=O)NC(=O)[C@H](CCSC)NC(=O)[C@H](CCC(=O)O)NC(=O)[C@H](CC(=O)O)NC(=O)[C@H](CO)NC(=O)[C@H](Cc1ccccc1)NC(=O)[C@H](CO)NC(=O)CNC(=O)[C@H](CC(=O)O)NC(=O)CNC(=O)[C@@H](N)Cc1c[nH]cn1)[C@@H](C)O)[C@@H](C)CC)C(=O)N[C@@H](CC(N)=O)C(=O)N[C@@H](Cc1c[nH]c2ccccc12)C(=O)N[C@@H](CC(C)C)C(=O)N[C@H](C(=O)N[C@@H](CCC(N)=O)C(=O)N[C@H](C(=O)N[C@@H](CCCCN)C(=O)N[C@H](C(=O)N[C@H](C(=O)N[C@@H](CC(=O)O)C(=O)O)[C@@H](C)O)[C@@H](C)CC)[C@@H](C)O)[C@@H](C)CC [teduglutide]
ALKALINE PHOSPHATASE change from baseline −5% <= and <=5%, percent of patients (week 12): (5.7%) | ALT (SGPT) change from baseline <−5%, number of patients (week 12): 19 | ALT (SGPT) change from baseline <−5%, percent of patients (week 12): (54.3%) | ALT (SGPT) change from baseline >5%, number of patients (week 12): 4 | ALT (SGPT) change from baseline >5%, percent of patients (week 12): (11.4%) | ALT (SGPT) change from baseline −5% <= and <=5%, number of patients (week 12): 4 | ALT (SGPT) change from baseline −5% <= and <=5%, percent of patients (week 12): (11.4%) | AST (SGOT) change from baseline <−5%, number of patients (week 12): 19 | AST (SGOT) change from baseline <−5%, percent of patients (week 12): (54.3%) | AST (SGOT) change from baseline >5%, number of patients (week 12): 5 | AST (SGOT) change from baseline >5%, percent of patients (week 12): (14.3%) | AST (SGOT) change from baseline −5% <= and <=5%, number of patients (week 12): 3 | AST (SGOT) change from baseline −5% <= and <=5%, percent of patients (week 12): (8.6%) | TOTAL BILIRUBIN change from baseline <−5%, number of patients (week 12): 14 | TOTAL BILIRUBIN change from baseline <−5%, percent of patients (week 12): (40.0%) | TOTAL BILIRUBIN change from baseline >5%, number of patients (week 12): 6 | TOTAL BILIRUBIN change from baseline >5%, percent of patients (week 12): (17.1%) | TOTAL BILIRUBIN change from baseline −5% <= and <=5%, number of patients (week 12): 4 | TOTAL BILIRUBIN change from baseline −5% <= and <=5%, percent of patients (week 12): (11.4%) | ALKALINE PHOSPHATASE change from baseline <−5%, number of patients (week 16): 20 | ALKALINE PHOSPHATASE change from baseline <−5%, percent of patients (week 16): (57.1%) | ALKALINE PHOSPHATASE change from baseline >5%, number of patients (week 16): 6 | ALKALINE PHOSPHATASE change from baseline >5%, percent of patients (week 16): (17.1%) | ALKALINE PHOSPHATASE change from baseline −5% <= and <=5%, number of patients (week 16): 2 | ALKALINE PHOSPHATASE change from baseline −5% <= and <=5%, percent of patients (week 16): (5.7%) | ALT (SGPT) change from baseline <−5%, number of patients (week 16): 16 | ALT (SGPT) change from baseline <−5%, percent of patients (week 16): (45.7%) | ALT (SGPT) change from baseline >5%, number of patients (week 16): 12 | ALT (SGPT) change from baseline >5%, percent of patients (week 16): (34.3%) | ALT (SGPT) change from baseline −5% <= and <=5%, number of patients (week 16): 0 | ALT (SGPT) change from baseline −5% <= and <=5%, percent of patients (week 16): (0.0%) | AST (SGOT) change from baseline <−5%, number of patients (week 16): 14 | AST (SGOT) change from baseline <−5%, percent of patients (week 16): (40.0%) | AST (SGOT) change from baseline >5%, number of patients (week 16): 8 | AST (SGOT) change from baseline >5%, percent of patients (week 16): (22.9%) | AST (SGOT) change from baseline −5% <= and <=5%, number of patients (week 16): 6 | AST (SGOT) change from baseline −5% <= and <=5%, percent of patients (week 16): (17.1%) | TOTAL BILIRUBIN change from baseline <−5%, number of patients (week 16): 14 | TOTAL BILIRUBIN change from baseline <−5%, percent of patients (week 16): (40.0%) | TOTAL BILIRUBIN change from baseline >5%, number of patients (week 16): 9 | TOTAL BILIRUBIN change from baseline >5%, percent of patients (week 16): (25.7%) | TOTAL BILIRUBIN change from baseline −5% <= and <=5%, number of patients (week 16): 3 | TOTAL BILIRUBIN change from baseline −5% <= and <=5%, percent of patients (week 16): (8.6%) | ALKALINE PHOSPHATASE change from baseline <−5%, number of patients (week 20): 22 | ALKALINE PHOSPHATASE change from baseline <−5%, percent of patients (week 20): (62.9%) | ALKALINE PHOSPHATASE change from baseline >5%, number of patients (week 20): 4 | ALKALINE PHOSPHATASE change from baseline >5%, percent of patients (week 20): (11.4%) | ALKALINE PHOSPHATASE change from baseline −5% <= and <=5%, number of patients (week 20): 1 | ALKALINE PHOSPHATASE change from baseline −5% <= and <=5%, percent of patients (week 20): (2.9%) | ALT (SGPT) change from baseline <−5%, number of patients (week 20): 17 | ALT (SGPT) change from baseline <−5%, percent of patients (week 20): (48.6%) | ALT (SGPT) change from baseline >5%, number of patients (week 20): 9 | ALT (SGPT) change from baseline >5%, percent of patients (week 20): (25.7%) | ALT (SGPT) change from baseline −5% <= and <=5%, number of patients (week 20): 1 | ALT (SGPT) change from baseline −5% <= and <=5%, percent of patients (week 20): (2.9%) | AST (SGOT) change from baseline <−5%, number of patients (week 20): 17 | AST (SGOT) change from baseline <−5%, percent of patients (week 20): (48.6%) | AST (SGOT) change from baseline >5%, number of patients (week 20): 6 | AST (SGOT) change from baseline >5%, percent of patients (week 20): (17.1%) | AST (SGOT) change from baseline −5% <= and <=5%, number of patients (week 20): 4 | AST (SGOT) change from baseline −5% <= and <=5%, percent of patients (week 20): (11.4%) | TOTAL BILIRUBIN change from baseline <−5%, number of patients (week 20): 12 | TOTAL BILIRUBIN change from baseline <−5%, percent of patients (week 20): (34.3%) | TOTAL BILIRUBIN change from baseline >5%, number of patients (week 20): 7 | TOTAL BILIRUBIN change from baseline >5%, percent of patients (week 20): (20.0%) | TOTAL BILIRUBIN change from baseline −5% <= and <=5%, number of patients (week 20): 6 | TOTAL BILIRUBIN change from baseline −5% <= and <=5%, percent of patients (week 20): (17.1%) | ALKALINE PHOSPHATASE change from baseline <−5%, number of patients (week 24): 21 | ALKALINE PHOSPHATASE change from baseline <−5%, percent of patients (week 24): (60.0%) | ALKALINE PHOSPHATASE change from baseline >5%, number of patients (week 24): 4 | ALKALINE PHOSPHATASE change from baseline >5%, percent of patients (week 24): (11.4%) | ALKALINE PHOSPHATASE change from baseline −5% <= and <=5%, number of patients (week 24): 0 | ALKALINE PHOSPHATASE change from baseline −5% <= and <=5%, percent of patients (week 24): (0.0%) | ALT (SGPT) change from baseline <−5%, number of patients (week 24): 18 | ALT (SGPT) change from baseline <−5%, percent of patients (week 24): (51.4%) | ALT (SGPT) change from baseline >5%, number of patients (week 24): 4 | ALT (SGPT) change from baseline >5%, percent of patients (week 24): (11.4%) | ALT (SGPT) change from baseline −5% <= and <=5%, number of patients (week 24): 4 | ALT (SGPT) change from baseline −5% <= and <=5%, percent of patients (week 24): (11.4%) | AST (SGOT) change from baseline <−5%, number of patients (week 24): 17 | AST (SGOT) change from baseline <−5%, percent of patients (week 24): (48.6%) | AST (SGOT) change from baseline >5%, number of patients (week 24): 6 | AST (SGOT) change from baseline >5%, percent of patients (week 24): (17.1%) | AST (SGOT) change from baseline −5% <= and <=5%, number of patients (week 24): 3 | AST (SGOT) change from baseline −5% <= and <=5%, percent of patients (week 24): (8.6%) | TOTAL BILIRUBIN change from baseline <−5%, number of patients (week 24): 8 | TOTAL BILIRUBIN change from baseline <−5%, percent of patients (week 24): (22.9%) | TOTAL BILIRUBIN change from baseline >5%, number of patients (week 24): 10 | TOTAL BILIRUBIN change from baseline >5%, percent of patients (week 24): (28.6%) | TOTAL BILIRUBIN change from baseline −5% <= and <=5%, number of patients (week 24): 4 | TOTAL BILIRUBIN change from baseline −5% <= and <=5%, percent of patients (week 24): (11.4%) | ALT (SGPT) Change from Baseline Median (0.10 mg/kg/day, DW4): −6.5 | ALT (SGPT) Median (0.10 mg/kg/day, DW4): 30.0
